This is an account of results in ChEMBL document CHEMBL5154859, “Targeting the Aryl Hydrocarbon Receptor with Microbial Metabolite Mimics Alleviates Experimental Colitis in Mice” (J Med Chem, 2022).

Molecules are shown by their SMILES.

The target in data set [1] is T1, Aryl hydrocarbon receptor (Mus musculus, UniProt P30561).
T1 sequence (P30561 whole entry): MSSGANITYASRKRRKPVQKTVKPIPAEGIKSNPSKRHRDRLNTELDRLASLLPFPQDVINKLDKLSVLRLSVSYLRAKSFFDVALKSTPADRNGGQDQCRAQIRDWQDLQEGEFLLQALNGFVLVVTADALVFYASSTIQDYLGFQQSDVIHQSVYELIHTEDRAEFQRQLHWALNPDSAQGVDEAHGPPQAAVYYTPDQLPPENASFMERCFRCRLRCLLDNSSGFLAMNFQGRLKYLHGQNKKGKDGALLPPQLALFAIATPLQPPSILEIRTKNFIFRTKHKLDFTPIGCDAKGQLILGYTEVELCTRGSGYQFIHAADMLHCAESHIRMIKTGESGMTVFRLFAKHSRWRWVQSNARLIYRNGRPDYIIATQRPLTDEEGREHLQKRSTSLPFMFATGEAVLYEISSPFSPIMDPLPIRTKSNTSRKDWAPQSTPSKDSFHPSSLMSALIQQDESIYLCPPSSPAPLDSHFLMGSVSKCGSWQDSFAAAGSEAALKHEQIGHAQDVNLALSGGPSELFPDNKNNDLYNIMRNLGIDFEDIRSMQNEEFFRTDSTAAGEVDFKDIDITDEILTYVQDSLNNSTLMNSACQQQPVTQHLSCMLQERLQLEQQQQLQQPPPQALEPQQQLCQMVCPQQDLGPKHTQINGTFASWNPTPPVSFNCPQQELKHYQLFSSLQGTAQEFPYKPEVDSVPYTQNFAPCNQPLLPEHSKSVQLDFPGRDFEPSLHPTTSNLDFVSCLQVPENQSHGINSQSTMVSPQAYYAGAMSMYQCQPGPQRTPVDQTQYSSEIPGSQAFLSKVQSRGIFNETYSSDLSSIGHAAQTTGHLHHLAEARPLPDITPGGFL
In words: Displacement of [3H]TCDD from mouse AhR expressed in mouse Hepa1c1c7 cells cytosol incubated for 2 hrs by competitive radioligand binding assay. Type of data set: subcellular. Background: Loss of bound radioactivity is the signal in a displacement assay; it reports binding, not function.

The target in data set [2] is T2, Aryl hydrocarbon receptor (Homo sapiens, UniProt P35869).
T2 sequence (P35869 whole entry): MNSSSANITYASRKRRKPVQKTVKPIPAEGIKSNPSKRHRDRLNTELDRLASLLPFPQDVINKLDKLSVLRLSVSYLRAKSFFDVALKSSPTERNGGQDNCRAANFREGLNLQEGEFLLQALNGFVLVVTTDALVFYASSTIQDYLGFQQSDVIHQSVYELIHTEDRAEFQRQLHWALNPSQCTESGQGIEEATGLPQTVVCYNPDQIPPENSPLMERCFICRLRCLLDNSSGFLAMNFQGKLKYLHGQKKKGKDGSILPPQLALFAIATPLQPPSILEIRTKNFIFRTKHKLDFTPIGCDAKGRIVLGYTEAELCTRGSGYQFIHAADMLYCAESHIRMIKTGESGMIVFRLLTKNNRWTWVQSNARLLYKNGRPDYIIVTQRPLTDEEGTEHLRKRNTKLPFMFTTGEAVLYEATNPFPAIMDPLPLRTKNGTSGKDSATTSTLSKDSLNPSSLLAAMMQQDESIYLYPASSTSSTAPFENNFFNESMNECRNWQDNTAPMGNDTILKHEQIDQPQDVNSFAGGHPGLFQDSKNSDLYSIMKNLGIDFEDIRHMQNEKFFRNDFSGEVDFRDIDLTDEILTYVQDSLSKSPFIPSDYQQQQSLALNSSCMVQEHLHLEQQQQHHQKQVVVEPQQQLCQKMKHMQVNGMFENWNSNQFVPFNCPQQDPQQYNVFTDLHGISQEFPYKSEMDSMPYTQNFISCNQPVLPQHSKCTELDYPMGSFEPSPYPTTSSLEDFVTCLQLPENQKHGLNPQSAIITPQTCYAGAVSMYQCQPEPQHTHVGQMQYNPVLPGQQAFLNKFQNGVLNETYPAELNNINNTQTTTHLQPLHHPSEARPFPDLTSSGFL
In words: Agonist activity at AhR in human AZ-AHR reporter cell derived from human HepG2 cells assessed as increase in luciferase activity at 1 uM measured after 8 to 24 hrs. The data set is classed as cell-based. The note with it: TDE = time-dependent effect, time 8-24 hrs.

Data set [3] concerns the target T3, AhR (aryl hydrocarbon receptor) (Homo sapiens, UniProt P35869).
T3 sequence (P35869 whole entry): T2 sequence (P35869 whole entry)
In words: Agonist activity at AhR (unknown origin) transfected in human AZ-AHR reporter cells derived from human HepG2 cells assessed as relative efficacy incubated for 4 hrs by luciferase reporter gene assay relative to control. The data set is classed as cell-based. The note with it: read-out: Efficacy. For orientation: In a reporter assay the amount or activity of a reporter protein is the signal.

Data set [4] can be described thus: Metabolic stability in mouse plasma assessed as half life by LC/MS analysis. The data set is classed as ADME, cell-free.
In data set [5] the target is T1, Aryl hydrocarbon receptor. In words: Agonist activity at AhR in mouse Hepa2Dluc cells. Type of data set: cell-based.
The target in data set [6] is T2, Aryl hydrocarbon receptor. In words: Agonist activity at AhR (unknown origin) transfected in human AZ-AHR reporter cells derived from human HepG2 cells incubated for 4 hrs by luciferase reporter gene assay. The data set is classed as cell-based. As to conditions: for Activity: human, az-ahr, 4 h, DDE = dose-dependent effect; call rule not given here.
The nature of data set [7]: Stability in cell-free culture media assessed as parent compound remaining at 1 uM incubated for 12 hrs in presence of serum by LC/MS analysis. The data set is classed as physicochemical. As to conditions: cell-free culture media with serum, read-out: Stability.
In data set [8] the target is T4, Nuclear receptor subfamily 1 group I member 2 (Homo sapiens, UniProt O75469).
T4 sequence (O75469 whole entry): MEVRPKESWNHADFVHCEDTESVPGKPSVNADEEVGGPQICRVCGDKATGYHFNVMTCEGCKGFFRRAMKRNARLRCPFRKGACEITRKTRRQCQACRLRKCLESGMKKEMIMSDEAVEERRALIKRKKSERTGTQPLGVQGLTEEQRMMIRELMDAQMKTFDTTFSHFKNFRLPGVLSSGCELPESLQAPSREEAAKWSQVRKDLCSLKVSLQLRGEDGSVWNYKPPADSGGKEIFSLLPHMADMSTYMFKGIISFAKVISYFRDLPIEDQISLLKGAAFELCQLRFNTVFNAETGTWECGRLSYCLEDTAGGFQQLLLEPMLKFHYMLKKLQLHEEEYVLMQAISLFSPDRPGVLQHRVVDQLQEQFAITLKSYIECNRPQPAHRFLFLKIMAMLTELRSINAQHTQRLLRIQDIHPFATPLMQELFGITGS
In words: Displacement of fluorescence labeled ligand from human PXR ligand binding domain by Lanthascreen TR-FRET assay. On the technique in general: Time-resolved FRET reads energy transfer from a long-lived donor to a nearby acceptor.

In data set [9] the target is T4, Nuclear receptor subfamily 1 group I member 2. In words: Agonist activity at human PXR transfected in human LS180 cells cotransfected with luciferase reporter plasmid p2A4-Luc assessed as transcriptional activity incubated for 24 hrs by luciferase reporter assay. Type of data set: cell-based.
Data set [10] addresses T2, Aryl hydrocarbon receptor. In words: Agonist activity at AhR in human LS180 cells assessed as induction of nuclear translocation at 1 uM incubated for 90 mins by DAPI staining based confocal fluorescence microscopic analysis. Type of data set: cell-based. The note with it: ls180, 1.5 h.
In data set [11] the target is T2, Aryl hydrocarbon receptor. In words: Agonist activity at AhR in human LS180 cells assessed as binding of AhR to CYP1A1 promoter gene at 1 uM incubated for 90 mins by chromatin immunoprecipitation assay. The data set is classed as cell-based. The note with it: ls180, 1.5 h.
In data set [12] the target is T2, Aryl hydrocarbon receptor. In words: Agonist activity at AhR in human LS180 cell lysates assessed as induction of AhR-ARNT heterodimerization at 1 uM incubated for 90 mins by co-immunoprecipitation assay. Type of data set: subcellular. As to conditions: ls180, 1.5 h.

As usually defined, the Ki is a measure of affinity in units of concentration, obtained from inhibition or displacement. A high value points to lower affinity. Broadly, the half-life is how long it takes for the measured level to halve. In general, EC50 refers to the midpoint of the concentration-response curve. Take `COC(=O)c1csc(C(=O)c2c[nH]c3ccccc23)n1`: the Ki in data set [1] came out at 10 nM. Besides, the Activity entry in data set [2] is listed as “Tde”. In data set [3], the Emax at 4 h is 131%. In addition, the half-life in [4] is 44 min. The EC50 in [5] is 10 nM.

In the case of `O=C(c1nccs1)c1cn(C(=O)c2ccccc2)c2ccccc12`, the Emax at 4 h in [3] is 81.4%. The Activity result in data set [6] is reported as “Dde”.

What is called IC50 is the point on the concentration scale where inhibition reaches its midpoint. A lower IC50 goes with greater potency in that assay. For `CNC(=O)c1csc(C(=O)c2c[nH]c3ccccc23)n1`, in data set [7], the remaining at 12 h, 1 µM worked out at 5%. Further, in data set [8], the IC50 worked out at 32100 nM. Besides, the EC50 in data set [9] was 12000 nM.

For the compound `Cn1cc(C(=O)c2nccs2)c2ccccc21`, the Emax at 4 h in data set [3] was 62.9%. The Activity entry in data set [6] was “Dde”.

As for `COc1cc(Cn2cc(C(=O)c3nccs3)c3ccccc32)cc(OC)c1`, the Emax at 4 h in [3] stood at 57%. Besides, the Activity entry in data set [6] was “Dde”.

Take `CC(=O)n1cc(C(=O)c2nccs2)c2ccccc21`: the Emax at 4 h in [3] is 106%. Also, the Activity result in data set [6] is “Dde”.

Turning to `COc1ccc(Cn2cc(C(=O)c3nccs3)c3ccccc32)cc1`, the Ki in data set [1] came to 800 nM. Moreover, the Activity entry in data set [10] is given as “Active”; in data set [2] it was “Tde”; in [11], “Active”; in data set [12], “Active”. In data set [3], the Emax at 4 h was 133%. In [6], this compound came in with an EC50 of 110 nM.

With `C=CCn1cc(C(=O)c2nccs2)c2ccccc21`, the Emax at 4 h in data set [3] is 63.9%. Also, the Activity entry in data set [6] was “Dde”.
